Test results: ChEMBL document CHEMBL3046163, “Cross-resistance relationships between neonicotinoids and pymetrozine in Bemisia tabaci (Hemiptera: Aleyrodidae)” (2010)
Converted amounts (≈) assume the structure as drawn.

How the values were obtained:
Type in all cases: functional
[1] = tested on: Bemisia tabaci; assay: Resistance ratio of LC50 for Bemisia tabaci biotype-B B4 (sweet potato whitefly) to LC50 for Bemisia tabaci LABS
[2] = tested on: Bemisia tabaci; assay: Resistance ratio of LC50 for Bemisia tabaci biotype-B B3 (sweet potato whitefly) to LC50 for Bemisia tabaci LABS
[3] = tested on: Bemisia tabaci; assay: Resistance ratio of LC50 for Bemisia tabaci biotype-B B2 (sweet potato whitefly) to LC50 for Bemisia tabaci LABS
[4] = tested on: Bemisia tabaci; assay: Resistance ratio of LC50 for Bemisia tabaci biotype-B B1 (sweet potato whitefly) to LC50 for Bemisia tabaci LABS
[5] = tested on: Bemisia tabaci; assay: Resistance ratio of LC50 for Bemisia tabaci biotype-Q Q3 (sweet potato whitefly) to LC50 for Bemisia tabaci LABS
[6] = tested on: Bemisia tabaci; assay: Resistance ratio of LC50 for Bemisia tabaci biotype-Q Q2 (sweet potato whitefly) to LC50 for Bemisia tabaci LABS
[7] = tested on: Bemisia tabaci; assay: Resistance ratio of LC50 for Bemisia tabaci biotype-Q Q1 (sweet potato whitefly) to LC50 for Bemisia tabaci LABS
[8] = tested on: Bemisia tabaci; assay: Insecticidal activity against Bemisia tabaci biotype-B B4 (sweet potato whitefly) after 48 hr by leaf-dip bioassay; details: biotype-B B4, 48 h
[9] = tested on: Bemisia tabaci; assay: Insecticidal activity against Bemisia tabaci biotype-B B3 (sweet potato whitefly) after 48 hr by leaf-dip bioassay; details: biotype-B B3, 48 h
[10] = tested on: Bemisia tabaci; assay: Insecticidal activity against Bemisia tabaci biotype-B B2 (sweet potato whitefly) after 48 hr by leaf-dip bioassay; details: biotype-B B2, 48 h
[11] = tested on: Bemisia tabaci; assay: Insecticidal activity against Bemisia tabaci biotype-Q Q3 (sweet potato whitefly) after 48 hr by leaf-dip bioassay; details: biotype-Q Q3, 48 h
[12] = tested on: Bemisia tabaci; assay: Insecticidal activity against Bemisia tabaci biotype-B B1 (sweet potato whitefly) after 48 hr by leaf-dip bioassay; details: biotype-B B1, 48 h
[13] = tested on: Bemisia tabaci; assay: Insecticidal activity against Bemisia tabaci biotype-Q Q2 (sweet potato whitefly) after 48 hr by leaf-dip bioassay; details: biotype-Q Q2, 48 h
[14] = tested on: Bemisia tabaci; assay: Insecticidal activity against Bemisia tabaci LABS (sweet potato whitefly) after 48 hr by leaf-dip bioassay
[15] = tested on: Bemisia tabaci; assay: Insecticidal activity against Bemisia tabaci biotype-Q Q1 (sweet potato whitefly) after 48 hr by leaf-dip bioassay; details: biotype-Q Q1, 48 h
[16] = tested on: Bemisia tabaci; assay: Selectivity ratio of LC50 for pymetrozine-selected Bemisia tabaci B2 (sweet potato whitefly) to LC50 for Bemisia tabaci B2
[17] = tested on: Bemisia tabaci; assay: Insecticidal activity against pymetrozine-selected Bemisia tabaci B2 (sweet potato whitefly) after 48 hr by leaf-dip bioassay; details: B2, 48 h
[18] = tested on: Bemisia tabaci; assay: Insecticidal activity against pymetrozine-selected Bemisia tabaci B2 (sweet potato whitefly) after 96 hr by leaf-dip bioassay; details: B2, 96 h
[19] = tested on: Bemisia tabaci; assay: Selectivity ratio of LC50 for thiamethoxam-selected Bemisia tabaci B1B3 (sweet potato whitefly) to LC50 for Bemisia tabaci B1B3
[20] = tested on: Bemisia tabaci; assay: Insecticidal activity against thiamethoxam-selected Bemisia tabaci B1B3 (sweet potato whitefly) after 96 hr by leaf-dip bioassay; details: B1B3, 96 h
[21] = tested on: Bemisia tabaci; assay: Insecticidal activity against pymetrozine-selected Bemisia tabaci B1B3 (sweet potato whitefly) after 96 hr by leaf-dip bioassay; details: B1B3, 96 h
[22] = tested on: Bemisia tabaci; assay: Insecticidal activity against Bemisia tabaci B1B3 (sweet potato whitefly) after 96 hr by leaf-dip bioassay; details: B1B3, 96 h
[23] = tested on: Bemisia tabaci; assay: Selectivity ratio of LC50 for pymetrozine-selected Bemisia tabaci B1B3 (sweet potato whitefly) to LC50 for Bemisia tabaci B1B3
[24] = tested on: Bemisia tabaci; assay: Insecticidal activity against Bemisia tabaci biotype-B B4 (sweet potato whitefly) after 96 hr by leaf-dip bioassay; details: biotype-B B4, 96 h
[25] = tested on: Bemisia tabaci; assay: Insecticidal activity against Bemisia tabaci biotype-B B2 (sweet potato whitefly) after 96 hr by leaf-dip bioassay; details: biotype-B B2, 96 h
[26] = tested on: Bemisia tabaci; assay: Insecticidal activity against Bemisia tabaci biotype-B B3 (sweet potato whitefly) after 96 hr by leaf-dip bioassay; details: biotype-B B3, 96 h
[27] = tested on: Bemisia tabaci; assay: Insecticidal activity against Bemisia tabaci biotype-B B1 (sweet potato whitefly) after 96 hr by leaf-dip bioassay; details: biotype-B B1, 96 h
[28] = tested on: Bemisia tabaci; assay: Insecticidal activity against Bemisia tabaci biotype-Q Q3 (sweet potato whitefly) after 96 hr by leaf-dip bioassay; details: biotype-Q Q3, 96 h
[29] = tested on: Bemisia tabaci; assay: Insecticidal activity against Bemisia tabaci biotype-Q Q2 (sweet potato whitefly) after 96 hr by leaf-dip bioassay; details: biotype-Q Q2, 96 h
[30] = tested on: Bemisia tabaci; assay: Insecticidal activity against Bemisia tabaci biotype-Q Q1 (sweet potato whitefly) after 96 hr by leaf-dip bioassay; details: biotype-Q Q1, 96 h
[31] = tested on: Bemisia tabaci; assay: Insecticidal activity against Bemisia tabaci LABS (sweet potato whitefly) after 96 hr by leaf-dip bioassay
[32] = tested on: Bemisia tabaci; assay: Insecticidal activity against thiamethoxam-selected Bemisia tabaci B1B3 (sweet potato whitefly) after 48 hr by leaf-dip bioassay; details: B1B3, 48 h
[33] = tested on: Bemisia tabaci; assay: Insecticidal activity against pymetrozine-selected Bemisia tabaci B1B3 (sweet potato whitefly) after 48 hr by leaf-dip bioassay; details: B1B3, 48 h
[34] = tested on: Bemisia tabaci; assay: Insecticidal activity against Bemisia tabaci B1B3 (sweet potato whitefly) after 48 hr by leaf-dip bioassay; details: B1B3, 48 h

What does the source list for `C/C(=N\C#N)N(C)Cc1ccc(Cl)nc1` [ACETAMIPRID]?
RatioLC50 [1]: 15; RatioLC50 [2]: 30; RatioLC50 [3]: 1.2; RatioLC50 [4]: 2.1; RatioLC50 [5]: 57; RatioLC50 [6]: 20; RatioLC50 [7]: 0.95; LC50 [8]: 54 µg/mL (≈ 243 µM); LC50 [9]: 110 µg/mL (≈ 494 µM); LC50 [10]: 4.3 µg/mL (≈ 19.3 µM); LC50 [11]: 210 µg/mL (≈ 943 µM); LC50 [12]: 7.6 µg/mL (≈ 34.1 µM); LC50 [13]: 74 µg/mL (≈ 332 µM); LC50 [14]: 3.7 µg/mL (≈ 16.6 µM); LC50 [15]: 3.5 µg/mL (≈ 15.7 µM)

Which results are given for `O=[N+]([O-])/N=C1\NCCN1Cc1ccc(Cl)nc1` [IMIDACLOPRID]?
RatioLC50 [16]: 0.92; LC50 [17]: 23 µg/mL (≈ 90 µM); RatioLC50 [1]: 230; RatioLC50 [2]: 230; RatioLC50 [3]: 3.5; RatioLC50 [4]: 1.2; RatioLC50 [5]: 850; RatioLC50 [6]: 420; RatioLC50 [7]: 1.8; LC50 [8]: 1100 µg/mL (≈ 4300 µM); LC50 [9]: 1100 µg/mL (≈ 4300 µM); LC50 [10]: 17 µg/mL (≈ 66.5 µM); LC50 [11]: 4100 µg/mL (≈ 16000 µM); LC50 [12]: 5.8 µg/mL (≈ 22.7 µM); LC50 [13]: 2000 µg/mL (≈ 7820 µM); LC50 [14]: 4.8 µg/mL (≈ 18.8 µM); LC50 [15]: 8.5 µg/mL (≈ 33.2 µM)

Which results are given for `CC1=NNC(=O)N(/N=C/c2cccnc2)C1` [PYMETROZINE]?
RatioLC50 [16]: 54; LC50 [18]: 15 mg/mL (≈ 69100 µM); RatioLC50 [19]: 7.9; LC50 [20]: 1100 µg/mL (≈ 5060 µM); LC50 [21]: 3200 µg/mL (≈ 14700 µM); LC50 [22]: 140 µg/mL (≈ 644 µM); RatioLC50 [1]: 520; RatioLC50 [23]: 23; RatioLC50 [2]: 1100; RatioLC50 [3]: 92; RatioLC50 [4]: 1.6; RatioLC50 [5]: 1900; RatioLC50 [6]: 390; RatioLC50 [7]: 5.8; LC50 [24]: 1200 µg/mL (≈ 5520 µM); LC50 [25]: 220 µg/mL (≈ 1010 µM); LC50 [26]: 1200 µg/mL (≈ 5520 µM); LC50 [27]: 3.9 µg/mL (≈ 18 µM); LC50 [28]: 4600 µg/mL (≈ 21200 µM); LC50 [29]: 930 µg/mL (≈ 4280 µM); LC50 [30]: 14 µg/mL (≈ 64.4 µM); LC50 [31]: 2.4 µg/mL (≈ 11 µM)

What does the source list for `CN1COCN(Cc2cnc(Cl)s2)/C1=N\[N+](=O)[O-]` [THIAMETHOXAM]?
RatioLC50 [16]: 0.29; LC50 [17]: 8.6 µg/mL (≈ 29.5 µM); RatioLC50 [19]: 7; LC50 [32]: 450 µg/mL (≈ 1540 µM); LC50 [33]: 290 µg/mL (≈ 994 µM); LC50 [34]: 64 µg/mL (≈ 219 µM); RatioLC50 [1]: 73; RatioLC50 [23]: 4.5; RatioLC50 [2]: 150; RatioLC50 [3]: 2.9; RatioLC50 [4]: 6.3; RatioLC50 [5]: 490; RatioLC50 [6]: 240; RatioLC50 [7]: 3.7; LC50 [8]: 300 µg/mL (≈ 1030 µM); LC50 [9]: 100 µg/mL (≈ 343 µM); LC50 [10]: 12 µg/mL (≈ 41.1 µM); LC50 [11]: 2000 µg/mL (≈ 6860 µM); LC50 [12]: 4.5 µg/mL (≈ 15.4 µM); LC50 [13]: 980 µg/mL (≈ 3360 µM); LC50 [14]: 4.1 µg/mL (≈ 14.1 µM); LC50 [15]: 15 µg/mL (≈ 51.4 µM)
